Test results reported in US10561638B2, “Methods for treating dependence” (Biotie Therapies, Inc., priority 2007, dated 2020).
“Also recorded” adds a separate entry of the source.

Tested on: tissue noradrenaline and dopamine content
Test: Tissue catecholamines in SHRs after three oral doses 12 h apart
Type: in vivo, spontaneously hypertensive rats
Settings: for increase in DA/NE ratio / nepicastat compared with SKF-102698, catecholamine changes: 30 mg/kg; for maximal increase in DA/NE ratio: 100 mg/kg; for decrease in noradrenaline / increase in dopamine: 100 mg/kg po x3
Experimental: Male SHRs (15-16 weeks old, Charles River, Wilmington, Mass., USA) were used in in vivo studies. On the day of the study, animals were weighed and randomly assigned to be dosed with either vehicle (control) or the appropriate dose of nepicastat (3, 10, 30 or 100 mg·kg^−1, po) or Compound B (30 mg·kg^−1, po) three consecutive times, twelve hours apart. At six hours after the third dose, the rats were anaesthetized with halothane, decapitated and tissues (cerebral cortex, mesenteric artery and left ventricle) were rapidly harvested, weighed, placed in iced perchloric acid (0.4 M), frozen in liquid nitrogen and stored at −70° C. until subsequent analysis. To quantify noradrenaline and dopamine concentrations, tissues were homogenized by brief sonication and centrifuged at 13,000 rpm for 30 minutes at 4° C. The supernatant, spiked with 3,4-dihydroxybenzylamine (internal standard), was assayed for noradrenaline and dopamine by HPLC using electrochemical detection.
Nepicastat was used in in vivo biochemical studies to study the effects in spontaneously hypertensive rats (SHRs) and normal beagle dogs. On the day of the study, the animals were weighed and randomly assigned to receive either placebo (vehicle) or the appropriate dose of nepicastat. Each rat was dosed orally three times, 12 h apart, beginning in the morning. At 6 h after the third dose, the rats were anesthetized with halothane, decapitated, and the tissues (cerebral cortex, mesenteric artery and left ventricle) were rapidly harvested, weighed, placed in iced 0.4 M perchloric acid, frozen in liquid nitrogen and stored at −70° C. until analysis. Tissue NE and DA concentrations were assayed by HPLC using electrochemical detection. Male beagle dogs (10-16 kg, Marshall Farms USA Inc, North Rose, N.Y.) were used in the study. On the day of the study, dogs were randomly assigned to receive either placebo (empty capsule) or the appropriate dose of nepicastat. Each dog was dosed twice a day for 4.5 days. 6 h after the first dose on day 5, the dogs were euthanized with pentobarbital and the tissues (cerebral cortex. renal artery, left ventricle) harvested, weighed, placed in iced 0.4 M perchloric acid, frozen in liquid nitrogen and stored at −70° C. until analysis. Tissue NE and DA concentrations were assayed by HPLC using electrochemical detection.
Fifteen to sixteen week old male spontaneously hypertensive rats (SHRs) (Charles River Labs) were allowed food and water ad libitum. Animals were weighed and randomly assigned to one of the following treatment groups: 1) distilled water vehicle (dH2O), or nepicastat at 3, 10, 30, and 100 mg/kg, 2) Compound B at 30 mg/kg in distilled water, or 3) PEG 400:dH2O vehicle or SKF-102698 at 30 mg/kg. Each rat was dosed orally (p.o., using a gavage needle) three times 12 hours apart, beginning in the morning. At six hours after the third dose rats were anesthetized with halothane, decapitated, and the cortex, mesenteric artery, and left ventricle were rapidly harvested, weighed, placed in iced 0.4 M perchioric acid, frozen in liquid nitrogen, and stored at −70° C. Tissue dopamine and norepinephrine concentrations were assayed by high performance liquid chromatography and electrochemical detection.
Four series of statistical analyses were performed. The first series compared the rats treated with various doses of nepicastat, and Compound B at 30 mg/kg to the vehicle control animals. A nonparametric one-way analysis of variance (ANOVA) with factor Dose and blocking factor Day was performed for each tissue and strain separately. […] Pairwise analysis between treated and controls at each dose were carried out using Dunnett's test to control the experiment-wise error rate. The second statistical test compared SKF-102698 to the PEG-dH2O vehicle treated group using a nonparametric t-test. The third statistical test compared Compound B to nepicastat at doses of 30 mg/kg using a nonparametric t-test.

[1] = cerebral cortex, 30 and 100 mg/kg
[2] = left ventricle and mesenteric artery
[3] = left ventricle, 3, 10, 30 and 100 mg/kg

## Fc1cc(F)cc(Cn2cc[nH]c2=S)c1 [SKF-102698, reference compound]
Cerebral cortex
  increase in DA/NE ratio: 2.7 fold
Cerebral cortex, 30 mg/kg x3
  dopamine vs vehicle: significantly greater (p<0.01) than vehicle
  dopamine/norepinephrine ratio vs vehicle: significantly (p<0.01) greater than vehicle
  norepinephrine vs vehicle: significantly lower than vehicle
Left ventricle
  increase in DA/NE ratio: 3.5 fold
Left ventricle, 30 mg/kg x3
  dopamine vs vehicle: significantly greater (p<0.01) than vehicle
  dopamine/norepinephrine ratio vs vehicle: significantly (p<0.05) greater than vehicle
  norepinephrine vs vehicle: not different from vehicle
Mesenteric artery
  increase in DA/NE ratio: 5.5 fold
Mesenteric artery, 30 mg/kg x3
  dopamine vs vehicle: significantly greater than vehicle
  dopamine/norepinephrine ratio vs vehicle: significantly greater than vehicle
  norepinephrine vs vehicle: significantly lower than vehicle

## Cl.NCc1c[nH]c(=S)n1[C@H]1CCc2c(F)cc(F)cc2C1 [nepicastat, (S)-5-Aminomethyl-1-(5,7-difluoro-1,2,3,4-tetrahydronaphth-2-yl)-2,3-dihydro-2-thioxo-1H-imidazole hydrochloride]
30 mg/kg po x3, mesenteric artery and/or left ventricle, hydrochloride
  nepicastat compared with the R-enantiomer (Compound B), catecholamine changes: significantly greater changes in catecholamine content; also recorded: significantly more potent then the R enantiomer; also recorded: significantly more effective (p<0.01) than Compound B
Cerebral cortex
  increase in DA/NE ratio: 1.5 fold
  maximal increase in DA/NE ratio: 3.2 fold
  decrease in noradrenaline: 42%
  increase in dopamine: 86%
Cerebral cortex, 30 mg/kg x3
  norepinephrine levels, nepicastat compared to Compound B: significantly lower
Cerebral cortex, hydrochloride
  nepicastat compared with SKF-102698, catecholamine changes: significantly less effects than SKF-102698; also recorded: greater for SKF-102698 than for nepicastat; also recorded: less effective in the cerebral cortex
[1]
  dopamine concentration vs vehicle: significantly (p<0.05) greater
  dopamine/norepinephrine ratio vs vehicle: significantly (p<0.05) greater
  norepinephrine concentration vs vehicle: significantly (p<0.05) lower
[2]
  dose for significant decrease in norepinephrine: 10 mg/kg
  dose for significant increase in dopamine: 3.0 mg/kg
  dose for significant increase in dopamine/norepinephrine ratio: 3.0 mg/kg
Left ventricle and/or mesenteric artery, hydrochloride
  nepicastat compared with SKF-102698, catecholamine changes: significantly more potent than the DBH inhibitor SKF-102698; also recorded: greater for nepicastat than for SKF-102698; also recorded: more effective than SKF-102698
Left ventricle
  increase in DA/NE ratio: 7.5 fold
  maximal increase in DA/NE ratio: 11 fold
  decrease in noradrenaline: 35%
  increase in dopamine: 800%
[3]
  dopamine concentration vs vehicle: significantly (p<0.05) greater than vehicle
  dopamine/norepinephrine ratio vs vehicle: significantly (p<0.05) greater than vehicle
Left ventricle, 10, 30 and 100 mg/kg
  norepinephrine concentration vs vehicle: significantly (p<0.05) lower than vehicle
Mesenteric artery and left ventricle
  doses at which catecholamine changes attained significance (p<0.05): ≥ 3 mg/kg
Mesenteric artery
  increase in DA/NE ratio: 8.3 fold
  maximal increase in DA/NE ratio: 14 fold
  decrease in noradrenaline: 47%
  increase in dopamine: 820%
Mesenteric artery, 3, 10, 30 and 100 mg/kg
  dopamine concentration vs vehicle: significantly (p<0.05) greater than vehicle
Mesenteric artery, 10, 30 and 100 mg/kg
  norepinephrine concentration vs vehicle: not significantly less (p>0.05)
Mesenteric artery, all doses
  dopamine/norepinephrine ratio vs vehicle: significantly (p<0.05) greater than vehicle
